{
  "source": "patent US20160279236A1",
  "about": "“USE OF RAPAMYCIN AS VACCINE ADJUVANT AND PREPARATION METHOD THEREFOR” (INSTITUT PASTEUR OF SHANGHAI, CHINESE ACADEMY OF SCIENCES, priority 2013, published 2016)",
  "key": {"BMDMs": {"tested_on": "BMDMs", "experiment": "Real-time quantitative PCR of gene expression in LPS-stimulated BMDMs", "type": "cell-based, C57BL/6 mice", "conditions": "100 nM rapamycin", "experimental": "Bone marrow stem cells of 6-8 weeks aged C57BL/6 mice were taken, and the cells are cultivated at 10^6 cells/mL cell density in bone marrow-derived macrophage (BMDM) differentiation medium (formulation of which was: RPMI 1640 complete medium added with 30% (v/v) L929 conditioned medium and 1% (v/v) pen/strep). After differentiation for 4 days, the old culture medium (comprising suspended cells) was removed and fresh BMDM differentiation medium was added. The adhered BMDMs were collected on the 7th day of differentiation and used in in vitro experiment.\nThe BMDMs were pre-treated with 100 nM of rapamycin or DMSO for 1 hour, and then the cells were stimulated with 100 ng/ml LPS […]. The cells were collected at 1, 2, 4 and 8 hours, and were cryopreserved in a refrigerator at −80° C. for the extraction and preparation of RNA.\nTRIZOL (Invitrogen) method was used to extract RNA of BMDM, and Superscript™ III Reverse Transcriptase Kit (Invitrogen) was used to respectively reverse transcribe 1 μg RNA so as to synthesize the first-strand cDNA for Real-time quantitative PCR determine of gene expression levels. The primers for Real-time quantitative PCR are shown in table 1. ΔΔ method was used to calculate the relative expression level of the determined gene compared with GAPDH."}, "BMDCs": {"tested_on": "BMDCs", "experiment": "IL-12 expression (ELISA) in BMDCs stimulated by Toll-like receptor agonists with or without rapamycin", "type": "cell-based, mouse", "conditions": "rapamycin 100 nM 1 hour", "experimental": "The present inventors have firstly studied the influence of rapamycin on IL-12 expression induced by a variety of Toll-like receptors agonist including polyI:C by in vitro experiments. Dendritic cells differentiated from mouse bone marrow cells (BMDCs differentiated for 7 days with 20 ng/ml GM-CSF and 10 ng/ml IL-4) were pre-treated with or without rapamycin (100 nM) for 1 hour, and stimulated by LPS (100 ng/ml), MPL (1 μg/ml), R848 (1 μg/ml) and polyI:C (20 μg/ml) respectively for 24 hours, and cell culture media were taken to determine the content of IL-12 by ELISA."}, "[1]": {"tested_on": "HBsAg-specific antibody and T cell responses", "experiment": "HBsAg VLP immunization of mice with adjuvants: antibody titers and Elispot T cell responses", "type": "in vivo, C57BL/6 mice", "experimental": "Virus-like particles (VLP) consisting of (HBV) outer membrane protein antigens is one of the few successful recombinant vaccines clinically used. Aluminum adjuvant (Alum) can only enhance the immune response of VLP in health populations, while it is of limited effects in the elderly people and patients with renal dysfunction. […] In order to further analyze the adjuvant activity of rapamycin, C57BL/6 mice were immunized by the inventors using HBsAg VLP (5 μg/mouse) (Shanghai Yemin Biotechnology Co., Ltd., Item number YM-101) as antigen in mixture with Alum (200 μg/mouse), Alum (200 μg/mouse)+MPL (10 μg/mouse), MPL (10 μg/mouse)+rapamycin (100 μg/mouse) respectively, and was immunized with HBsAg (without MPL or rapamycin) 3 weeks after the primary immunization. The mice were killed 2 weeks after the secondary immunization, and blood was taken to determine the content of HBsAg-specific IgG1, IgG2b, IgG2c. To test HBsAg-specific T cell responses, the inventors have determined HBsAg-specific induced Th1, Th17 and Th2 responses by Elispot (Elispot Assay).\nThe specific operations are listed as follows: spleen cells were inoculated at 5×10^5 cells per-well into Elispot 96-wells plate of IFNγ, IL-17 or IL-4, and treated or untreated (control) with HBsAg (10 μg/ml) or CD8 peptides (10 μg/ml, […], VWLSVIWM, China Peptides Co., LTD., Shanghai), incubated under 37° C., 5% CO2 for two days. The cells and supernatants were removed. The plates were washed with PBST for 5 times, then incubated with 50 μl of 2 μg/ml biotin-coupled IFNγ (ebioscience, cat No: 13-7312), IL-17 (ebioscience, cat No: 13-7177) or IL-4 (Mabtech, cat No: 3311-6-250) detecting antibody under 37° C. for 2 hours, washed with PBST for 5 times, then incubated with 100 μl of 1000-fold diluted Streptavidin-alkaline phosphatase (Mabtech, cat No: 3310-10) under 37° C. for 1 hour. After this incubation, plates washed with PBST for 3 times, and then washed with PBS for two times. 100 μl of NBT/CPIT substrate (Mabtech, cat No: 3650-10) was added and incubated at room temperature for 0.5 hour. Plates were washed with deionized water for 3 times, and then naturally dried in darkness. The numbers of positive spots was calculated with Elispot Reader, and then statistically analyzed."}, "[2]": {"conditions": "100 ng/ml LPS, during 4 hours of LPS stimulation, relative to GAPDH"}},
  "note": "Entries after “also recorded” stand apart in the source; their conditions may differ.",
  "data": [
    {"smiles": "CO[C@H]1C[C@@H]2CC[C@@H](C)[C@@](O)(O2)C(=O)C(=O)N2CCCC[C@H]2C(=O)O[C@H]([C@H](C)C[C@@H]2CC[C@@H](O)[C@H](OC)C2)CC(=O)[C@H](C)/C=C(\\C)[C@@H](O)[C@@H](OC)C(=O)[C@H](C)C[C@H](C)/C=C/C=C/C=C/1C", "note": "[rapamycin]", "values": [
      {"measurement": "expression of IL-10", "setting": "BMDMs; [2]", "result": "inhibit the expression"},
      {"measurement": "transcriptional expression of IL-12a", "setting": "BMDMs; [2]", "result": "increased the transcriptional expression; also recorded: promote the transcript expression"},
      {"measurement": "transcriptional expression of IL-12b", "setting": "BMDMs; [2]", "result": "increased the transcriptional expression; also recorded: promote the transcript expression"},
      {"measurement": "transcriptional expression of IL-23a", "setting": "BMDMs; [2]", "result": "increased the transcriptional expression; also recorded: promote the transcript expression"},
      {"measurement": "transcription and expression of CXCL2", "setting": "BMDMs; LPS", "result": "did not affect the transcription and expression"},
      {"measurement": "transcription and expression of TNFα", "setting": "BMDMs; LPS", "result": "did not affect the transcription and expression"},
      {"measurement": "expression of CD40", "setting": "BMDMs; upon stimulation of LPS", "result": "no remarkable influence"},
      {"measurement": "expression of CD80", "setting": "BMDMs; upon stimulation of LPS", "result": "no remarkable influence"},
      {"measurement": "expression of CD86", "setting": "BMDMs; upon stimulation of LPS", "result": "no remarkable influence"},
      {"measurement": "expression of PD-L1", "setting": "BMDMs; upon stimulation of LPS", "result": "remarkably decreased the expression; also recorded: inhibit the expression"},
      {"measurement": "IL-12 expression induced by lipopolysaccharide", "setting": "BMDCs; LPS 100 ng/ml 24 hours", "result": "enhance"},
      {"measurement": "IL-12 expression induced by MPL", "setting": "BMDCs; MPL 1 μg/ml 24 hours", "result": "enhance; also recorded: effectively enhanced"},
      {"measurement": "IL-12 expression induced by R848", "setting": "BMDCs; R848 1 μg/ml 24 hours", "result": "effectively enhanced"},
      {"measurement": "IL-12 expression induced by polyI:C", "setting": "BMDCs; polyI:C 20 μg/ml 24 hours", "result": "effectively enhanced"},
      {"measurement": "HBsAg-specific antigen response enhanced by MPL", "setting": "[1]; FIG. 4a", "result": "increased"},
      {"measurement": "HBsAg-specific CD8+ T cell responses", "setting": "[1]; IFNγ Elispot of spleen cells, CD8 peptides, compared with MPL+Alum immunized group", "result": "increased"},
      {"measurement": "HBsAg-specific CD4+ T cell responses", "setting": "[1]; IFNγ Elispot of spleen cells, compared with MPL+Alum immunized group", "result": "increased"},
      {"measurement": "HBsAg-specific Th2 cell response", "setting": "[1]; IL-4 Elispot, compared with MPL+Alum immunized group", "result": "increased"},
      {"measurement": "HBsAg-specific Th17 cell response", "setting": "[1]; IL-17 Elispot, compared with MPL+Alum immunized group", "result": "increased"}
    ]}
  ]
}
